Laboratory results reported in the supplement of paper PMC13380429.

What was measured:
Conditions in all cases: 72 h
[1] = tested on: Caco-2; test: cell viability relative to DMSO; higher = less toxic
[2] = tested on: Calu-3; test: as above
[3] = tested on: HepG2; test: as above
[4] = tested on: U2OS; test: as above
[5] = tested on: Vero E6; test: as above
[6] = tested on: Caco-2; test: relative viability EC50 (midpoint between 100% and the lowest measured viability); higher = less toxic
[7] = tested on: Calu-3; test: as above
[8] = tested on: HepG2; test: as above
[9] = tested on: U2OS; test: as above
[10] = tested on: Vero E6; test: as above
[11] = tested on: Caco-2; test: drug sensitivity score (DSS) for viability; higher = more toxic; extreme values may be limits of the assay
[12] = tested on: Calu-3; test: as above
[13] = tested on: HepG2; test: as above
[14] = tested on: U2OS; test: as above
[15] = tested on: Vero E6; test: as above

Row | SMILES | cell viability ([1]; 1 nM) [%] | cell viability ([1]; 10 nM) [%] | cell viability ([1]; 100 nM) [%] | cell viability ([1]; 1000 nM) [%] | cell viability ([1]; 10000 nM) [%] | cell viability ([2]; 1 nM) [%] | cell viability ([2]; 10 nM) [%] | cell viability ([2]; 100 nM) [%] | cell viability ([2]; 1000 nM) [%] | cell viability ([2]; 10000 nM) [%] | cell viability ([3]; 1 nM) [%] | cell viability ([3]; 10 nM) [%] | cell viability ([3]; 100 nM) [%] | cell viability ([3]; 1000 nM) [%] | cell viability ([3]; 10000 nM) [%] | cell viability ([4]; 1 nM) [%] | cell viability ([4]; 10 nM) [%] | cell viability ([4]; 100 nM) [%] | cell viability ([4]; 1000 nM) [%] | cell viability ([4]; 10000 nM) [%] | cell viability ([5]; 1 nM) [%] | cell viability ([5]; 10 nM) [%] | cell viability ([5]; 100 nM) [%] | cell viability ([5]; 1000 nM) [%] | cell viability ([5]; 10000 nM) [%] | relative viability EC50 [6] [µM] | relative viability EC50 [7] [µM] | relative viability EC50 [8] [µM] | relative viability EC50 [9] [µM] | relative viability EC50 [10] [µM] | drug sensitivity score [11] | drug sensitivity score [12] | drug sensitivity score [13] | drug sensitivity score [14] | drug sensitivity score [15]
1 | Cc1ccc(CC2(O)CCN(CCOc3ccc(O)cc3)CC2)cc1 | 103 | 101 | 95.5 | 91.7 | 92.2 | 110 | 96.5 | 91.7 | 95.9 | 96.9 | 100 | 90.4 | 108 | 90.3 | 84.6 | 100 | 96.8 | 97.8 | 97.1 | 99.7 | 103 | 101 | 99.4 | 99.6 | 93.1 | > 10 | > 10 | > 10 | > 10 | > 10 | 0 | 0 | 1 | 0 | 0
2 | Cc1ccc(Sc2cncc3sc(C(N)=O)cc23)cc1 | 97.7 | 92.1 | 96.5 | 89.2 | 90.8 | 95.7 | 102 | 89.6 | 90.9 | 80.6 | 94.4 | 105 | 86.7 | 87.6 | 87.7 | 100 | 97.5 | 110 | 108 | 113 | 94.3 | 98.3 | 82 | 91.4 | 98.1 | > 10 | > 10 | > 10 | > 10 | > 10 | 0 | 1.2 | 1.6 | 0 | 0
3 | NC[C@@](O)(c1ccc(Cl)cc1)c1ccc(-c2cn[nH]c2)cc1 | 93.7 | 104 | 104 | 99.9 | 70 | 98.5 | 99.9 | 119 | 144 | 105 | 89.6 | 93.2 | 111 | 93.8 | 79.5 | 104 | 103 | 95.5 | 94.6 | 44.4 | 101 | 104 | 97.5 | 70.5 | 30.7 |  | > 10 | > 10 | 2.36 | 1.16 | 1.3 | 0 | 1.4 | 3.9 | 7.4
4 | O=C(O)c1cnn(-c2nc3cc(OC(F)(F)F)c(Cl)cc3[nH]2)c1 | 104 | 92.7 | 97.6 | 103 | 93.6 | 89.5 | 106 | 105 | 102 | 98.5 | 93.8 | 96.2 | 91.9 | 104 | 88.1 | 101 | 96 | 90.3 | 88.8 | 93.3 | 97.2 | 104 | 100 | 103 | 93.7 | > 10 | > 10 | > 10 | > 10 | > 10 | 0 | 0 | 0 | 0.5 | 0
5 | O=S(=O)(c1ccccc1)N(CC(F)(F)F)c1ccc(C(O)(C(F)(F)F)C(F)(F)F)cc1 | 96 | 89.8 | 93.9 | 87.5 | 87.5 | 107 | 96.5 | 99.2 | 98.2 | 99.7 | 97.1 | 107 | 94.3 | 87.4 | 78.3 | 104 | 101 | 102 | 97.7 | 96.5 | 103 | 102 | 98.1 | 101 | 98.8 | > 10 | > 10 | > 10 | > 10 | > 10 | 0.5 | 0 | 1.8 | 0 | 0
